Where two headings read alike, the source gives them in different places.
Legend:
adenosine A1 receptor = target: T1, adenosine A1 receptor (Rattus norvegicus, UniProt P25099); experiment: biochemical
T1 sequence (P25099 1-326): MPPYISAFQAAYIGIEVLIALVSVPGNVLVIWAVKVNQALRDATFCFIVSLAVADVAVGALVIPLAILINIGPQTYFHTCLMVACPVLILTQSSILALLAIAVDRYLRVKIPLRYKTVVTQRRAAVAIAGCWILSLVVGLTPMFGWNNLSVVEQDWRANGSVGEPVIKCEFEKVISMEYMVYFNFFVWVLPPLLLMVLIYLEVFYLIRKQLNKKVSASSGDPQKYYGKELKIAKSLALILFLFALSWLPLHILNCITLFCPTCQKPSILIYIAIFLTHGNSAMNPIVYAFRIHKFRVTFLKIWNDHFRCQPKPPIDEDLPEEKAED

adenosine A3 receptor = target: T2, adenosine A3 receptor (Homo sapiens, UniProt P0DMS8); experiment: biochemical; settings: [125I]AB-MECA, membrane of HEK-293 cells transformed with A3 receptor plasmid, read-out: Receptor binding capacity (IC50) Adenosine A3
T2 construct: expressed in transfected cells; host or cells: HEK-293
T2 sequence (P0DMS8 1-318): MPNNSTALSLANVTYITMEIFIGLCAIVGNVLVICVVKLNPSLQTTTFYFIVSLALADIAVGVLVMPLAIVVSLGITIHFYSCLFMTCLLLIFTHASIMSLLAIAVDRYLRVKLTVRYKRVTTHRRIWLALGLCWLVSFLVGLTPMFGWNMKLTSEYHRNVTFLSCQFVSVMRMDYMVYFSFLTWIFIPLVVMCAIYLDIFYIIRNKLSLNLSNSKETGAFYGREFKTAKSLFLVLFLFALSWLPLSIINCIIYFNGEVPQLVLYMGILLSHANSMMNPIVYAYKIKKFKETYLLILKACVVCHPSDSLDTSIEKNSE

adenosine A2 receptor = target: T3, adenosine A2 receptor (Rattus norvegicus, UniProt P30543); experiment: Adenosine A2 receptor binding capacity
T3 construct: from tissue

[1] = adenosine A2 receptor, read-out: Receptor binding capacity (IC50) Adenosine A2

T3 sequence (P30543 whole entry): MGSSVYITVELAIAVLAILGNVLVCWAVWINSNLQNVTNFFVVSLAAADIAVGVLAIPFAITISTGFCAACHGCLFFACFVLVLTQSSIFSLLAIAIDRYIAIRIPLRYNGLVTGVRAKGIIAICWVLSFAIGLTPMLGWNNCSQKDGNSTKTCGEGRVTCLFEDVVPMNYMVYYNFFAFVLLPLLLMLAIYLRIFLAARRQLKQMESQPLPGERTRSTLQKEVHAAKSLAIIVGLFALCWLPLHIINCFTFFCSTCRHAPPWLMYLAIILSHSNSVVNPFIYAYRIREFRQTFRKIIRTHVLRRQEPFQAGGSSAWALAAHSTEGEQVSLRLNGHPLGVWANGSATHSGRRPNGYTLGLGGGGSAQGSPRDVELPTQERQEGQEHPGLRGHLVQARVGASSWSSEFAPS

IC50 (adenosine A1 receptor)	IC50 (adenosine A3 receptor)	IC50 (adenosine A2 receptor; [1])	SMILES	IC50 (adenosine A2 receptor)
101 nM	–	–	Cc1nc2[nH]cnc2c2nc(-c3ccccc3)nn12 [Example 1, 5-methyl-8-phenyl-1H-1,2,4-triazolo[5,1-i]purine]	–
–	96 nM	–	COc1cc(-c2nc3c4[nH]cnc4nc(C)n3n2)cc(OC)c1OC [Example 2]	–
2600 nM	95 nM	3000 nM	Cc1nc2nc[nH]c2c2nc(-c3cccnc3)nn12 [Example 3]	–
–	–	184 nM	CCCCc1nc2[nH]cnc2c2nc(-c3ccc(C)cc3)nn12 [Example 5]	–
178 nM	< 1 nM	247 nM	CCCCc1nc2nc[nH]c2c2nc(-c3ccccc3O)nn12 [Example 6]	–
1000 nM	–	–	CCCCc1nc2[nH]cnc2c2nc(-c3cc(OC)c(OC)c(OC)c3)nn12 [Example 12, 5-n-butyl-8-(3,4,5-trimethoxyphenyl)-1H-1,2,4-triazolo[5,1-i]purine]	–
228 nM	–	–	CCCCc1nc2[nH]cnc2c2nc(-c3cccnc3)nn12 [Example 13]	–
42 nM	–	–	CCCCc1nc2[nH]cnc2c2nc(-c3ccco3)nn12 [Example 15]	–
1300 nM	1.1 nM	723 nM	CCCCc1nc2nc[nH]c2c2nc(/C=C/c3ccccc3)nn12 [Example 17]	–
6.4 nM	–	–	c1ccc(-c2nc3c4nc[nH]c4nc(-c4ccccc4)n3n2)cc1 [Example 18]	–
93 nM	1.5 nM	546 nM	COc1cc(-c2nc3c4[nH]cnc4nc(-c4ccccc4)n3n2)cc(OC)c1OC [Example 19]	–
21 nM	7.4 nM	31 nM	c1ccc(-c2nc3nc[nH]c3c3nc(-c4cccnc4)nn23)cc1 [Example 20]	–
–	–	115 nM	CCCc1nc2nc[nH]c2c2nc(-c3ccccc3)nn12 [Example 23]	–
–	–	205 nM	CCCCCc1nc2nc[nH]c2c2nc(-c3ccccc3)nn12 [Example 34, 5-pentyl-8-phenyl-1H-1,2,4-triazolo[5,1-i]purine]	–
–	< 1 nM	111 nM	Cc1cccc(-c2nc3nc[nH]c3c3nc(-c4ccccc4)nn23)c1 [Example 35]	–
–	9 nM	3700 nM	CCCCCCCc1nc2nc[nH]c2c2nc(-c3ccccc3)nn12 [Example 37]	–
–	–	> 10000 nM	CCCCc1nc2[nH]cnc2c2nc(-c3ccc(N(C)C)cc3)nn12 [Example 42]	–

IC50 (adenosine A1 receptor)	IC50 (adenosine A3 receptor)	IC50 (adenosine A2 receptor; [1])	SMILES	IC50 (adenosine A2 receptor)
–	–	> 10000 nM	CCCCc1nc2[nH]cnc2c2nc(-c3ccc(OCCC)cc3)nn12 [Example 45]	–
–	1.7 nM	> 10000 nM	CCCCc1nc2nc[nH]c2c2nc(-c3ccc(OCc4ccccc4)cc3)nn12 [Example 49]	–
–	–	> 10000 nM	CCCCc1nc2nc[nH]c2c2nc(-c3ccc(-c4ccccc4)cc3)nn12 [Example 50]	–
–	1.6 nM	> 10000 nM	CCCCc1nc2nc[nH]c2c2nc(-c3ccc(OC)c(OC)c3)nn12 [Example 51]	–
–	7.8 nM	> 10000 nM	CCCCc1nc2nc[nH]c2c2nc(-c3ccc(N(CC)CC)cc3)nn12 [Example 54]	–
–	5.8 nM	> 10000 nM	CCCCc1nc2nc[nH]c2c2nc(-c3ccc(OC(F)(F)F)cc3)nn12 [Example 58]	–
–	–	> 10000 nM	CCCCc1nc2[nH]cnc2c2nc(-c3ccc(C(F)(F)F)cc3)nn12 [Example 59]	–
–	15 nM	> 10000 nM	CCCCc1nc2nc[nH]c2c2nc(-c3ccc(N(Cc4ccccc4)Cc4ccccc4)cc3)nn12 [Example 60]	–
–	< 1 nM	1800 nM	CCCCc1nc2nc[nH]c2c2nc(-c3ccc(NCc4ccccc4)cc3)nn12 [Example 61]	–
–	6.6 nM	> 10000 nM	CCCCc1nc2nc[nH]c2c2nc(-c3ccc(Oc4ccccc4)cc3)nn12 [Example 62]	–
–	1 nM	2400 nM	CCCCc1nc2nc[nH]c2c2nc(-c3ccc(NC)cc3)nn12 [Example 63]	–
–	< 1 nM	716 nM	CCCCc1nc2nc[nH]c2c2nc(-c3ccc4ccccc4c3)nn12 [Example 64]	–
–	–	> 10000 nM	CCCCc1nc2nc[nH]c2c2nc(-c3ccc(SC)cc3)nn12 [Example 66]	–
–	5.4 nM	1800 nM	CCCCc1nc2nc[nH]c2c2nc(-c3ccc(CC)cc3)nn12 [Example 67]	–
–	5.1 nM	> 10000 nM	CCCCc1nc2nc[nH]c2c2nc(-c3ccc(C(C)C)cc3)nn12 [Example 68]	–
–	–	> 10000 nM	CCCCc1nc2[nH]cnc2c2nc(-c3ccc(C(C)(C)C)cc3)nn12 [Example 69]	–

SMILES	IC50 (adenosine A1 receptor)	IC50 (adenosine A3 receptor)	IC50 (adenosine A2 receptor; [1])	IC50 (adenosine A2 receptor)
CCCCc1nc2nc[nH]c2c2nc(-c3ccc(CP(=O)(OCC)OCC)cc3)nn12 [Example 65]	–	3.7 nM	–	> 10000 nM

— patent publication US6288070A, “Triazolopurine derivatives, medicinal composition containing the derivatives, adenosine A3 receptor compatibilizing agent, and asthmatic remedy” (Otsuka Pharmaceutical Factory, Inc., priority 1998, dated 2001)
